Reference: patent US11918582B2 (RAPT Therapeutics, Inc., priority 2021, dated 2024)
pIC50: −log10 of the molar value. Counter-ions that a name gives are not always drawn.

Molecular target: T1, human HPK1 (MAP4K1) (Homo sapiens, UniProt Q92918)
T1 construct: Recombinant human HPK1 kinase domain was obtained from ThermoFisher (Cat. #PV6357) and SignalChem (Cat. #M23-11G); purchased ThermoFisher; SignalChem PV6357; M23-11G
T1 sequence (Q92918 17-274 limits assumed): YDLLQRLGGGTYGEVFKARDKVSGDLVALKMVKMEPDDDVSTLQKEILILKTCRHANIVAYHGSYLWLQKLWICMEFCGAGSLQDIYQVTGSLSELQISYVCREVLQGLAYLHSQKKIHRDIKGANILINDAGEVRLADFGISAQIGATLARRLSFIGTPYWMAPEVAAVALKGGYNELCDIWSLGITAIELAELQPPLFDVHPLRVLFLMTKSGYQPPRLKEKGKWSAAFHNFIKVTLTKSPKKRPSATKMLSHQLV
Assay: Biochemical assay for activity against HPK1 (ADP-Glo, MBP substrate)
Conditions: recombinant human HPK1 kinase domain, 1 nM enzyme, ADP-Glo luminescence
Source text: These compounds are made by the synthetic methods described earlier herein. Example 227 Biochemical Assay for Testing Compounds for Activity against HPK1
The enzymatic activity of human HPK1 (MAP4K1) was monitored in a biochemical assay in the presence or absence of compounds, using a peptide substrate (myelin basic protein, MBP), with an ADP-Glo assay kit (Promega, Cat. #V9103). An increase in phosphorylation of the peptide by HPK1 was indicative of its kinase activity.
Recombinant human HPK1 kinase domain was obtained from ThermoFisher (Cat. #PV6357) and SignalChem (Cat. #M23-11G). A 1 nM HPK1 kinase enzyme solution was prepared from the HPK1 stock received from the commercial supplier using an assay buffer containing 50 mM HEPES (4-(2-hydroxyethyl)-1-piperazineethanesulfonic acid) pH 7.5 (Fisher Scientific, Cat. #H1035), 150 mM NaCl (Fisher Scientific, Cat. #50843067), 3 mM TCEP-HCl (Tris(2-carboxyethyl)phosphine hydrochloride; Fisher Scientific, Cat. #PIPG82080), 10 mM MgCl2 (Fisher Scientific, Cat. #AM9530G), 0.005% Tween-20 (Fisher Scientific, Cat. #BP337500) and 0.01% BSA (bovine serum albumin; ThermoFisher, Cat. #15260037), in ultra-pure water. The final concentration of the assay buffer was 770 nM. A 5 mM stock solution of the peptide substrate was prepared using […] MBP (Myelin Basic Protein, Active Motif, Cat. #31314), 10 mM ATP (adenosine 5′-triphosphate; Sigma-Aldrich, Cat. #GE27-2056-01) and of assay buffer.
Test compounds were dissolved in DMSO (dimethyl sulfoxide) at 10 mM and then serial dilutions were prepared using a ViaFlow assist multichannel dispenser (Integra ViaFlo). 20 nL of test compounds at various concentrations were dispensed into a 1536-well assay plate (Corning Cat. #7247) using an Echo Nanoliter dispenser (Labcyte ECHO 550). […] of a 1 nM solution of HPK1 kinase enzyme diluted in assay buffer was added to the compound-containing plate using a Mantis Microliter dispenser (Formulatrix Mantis), covered with a lid, and incubated for 15 minutes at room temperature. 50 nL of a 5 mM stock solution of the peptide substrate (MBP) were added using the Echo Nanoliter dispenser. The plate was covered with a lid, centrifugated at 500 rpm for 1 minute and incubated for 2 hours at room temperature. […] of ADP-Glo reagent A was added using the Mantis Microliter dispenser, centrifugated at 500 rpm for 30 seconds and incubated for 40 minutes at room temperature. […] of ADP-Glo reagent B was added using the Mantis Microliter dispenser, centrifugated at 500 rpm for 30 seconds and incubated for 30 minutes at room temperature. Peptide phosphorylation was measured by luminescence on an Envision plate reader (PerkinElmer).
The HPK1 biochemical IC50 activity levels of the compounds of Examples 1-225 were tested using this assay and are shown in Table 2.

| Compound | pIC50 |
| --- | --- |
| CC(CO)n1ncc2cnc(Nc3ccc4c(c3)CN(C)CC4)nc21 (stereo not shown) [Example 10, 2-[6-[(2-methyl-3,4-dihydro-1H-isoquinolin-7-yl)amino]pyrazolo[3,4-d]pyrimidin-1-yl]propan-1-ol trifluoroacetate] | > 7.00 |
| COC(C)(C)CCn1ncc2cnc(Nc3ccc4c(c3)CN(C)CC4)nc21 [Example 11, N-(1-(3-methoxy-3-methylbutyl)-1H-pyrazolo[3,4-d]pyrimidin-6-yl)-2-methyl-1,2,3,4-tetrahydroisoquinolin-7-amine] | > 7.00 |
| CN1CCc2ccc(Nc3ncc4cnn(C5CCOCC5)c4n3)cc2C1 [Example 12, 2-methyl-N-(1-(tetrahydro-2H-pyran-4-yl)-1H-pyrazolo[3,4-d]pyrimidin-6-yl)-1,2,3,4-tetrahydroisoquinolin-7-amine] | > 7.00 |
| CN1CCc2ccc(Nc3ncc4cnn(CC5COC5)c4n3)cc2C1 [Example 14, 2-methyl-N-(1-(oxetan-3-ylmethyl)-1H-pyrazolo[3,4-d]pyrimidin-6-yl)-1,2,3,4-tetrahydroisoquinolin-7-amine] | > 7.00 |
| CN1CCc2ccc(Nc3ncc4cnn([C@@H]5CCOC5)c4n3)cc2C1 [Example 20, (R)-2-methyl-N-(1-(tetrahydrofuran-3-yl)-1H-pyrazolo[3,4-d]pyrimidin-6-yl)-1,2,3,4-tetrahydroisoquinolin-7-amine] | > 7.00 |
| CCC1CCCCC1n1ncc2cnc(Nc3cc4c(cc3OC)CCN(C)C4)nc21 (stereo not shown) [Example 25, N-(1-(2-ethylcyclohexyl)-1H-pyrazolo[3,4-d]pyrimidin-6-yl)-6-methoxy-2-methyl-1,2,3,4-tetrahydroisoquinolin-7-amine] | > 7.00 |
| COc1cc2c(cc1Nc1ncc3cnn([C@H]4CC[C@@H](C(N)=O)CC4)c3n1)CN(C)CC2 [Example 27, (1s,4s)-4-(6-((6-methoxy-2-methyl-1,2,3,4-tetrahydroisoquinolin-7-yl)amino)-1H-pyrazolo[3,4-d]pyrimidin-1-yl)cyclohexane-1-carboxamide] | > 7.00 |
| COc1cc2c(cc1Nc1ncc3cnn(C4CCCCC4)c3n1)CN(C)CC2 [Example 33, N-(1-cyclohexyl-1H-pyrazolo[3,4-d]pyrimidin-6-yl)-6-methoxy-2-methyl-1,2,3,4-tetrahydroisoquinolin-7-amine] | > 7.00 |
| CO[C@H]1CC[C@H](n2ncc3cnc(Nc4ccc5c(c4)CN(C)CC5)nc32)CC1 [Example 35, N-(1-((1r,4r)-4-methoxycyclohexyl)-1H-pyrazolo[3,4-d]pyrimidin-6-yl)-2-methyl-1,2,3,4-tetrahydroisoquinolin-7-amine] | > 7.00 |
| COc1cc2c(cc1Nc1ncc3cnn([C@H]4CC[C@H](C(N)=O)CC4)c3n1)CN(C)CC2 [Example 38, (1r,4r)-4-(6-((6-methoxy-2-methyl-1,2,3,4-tetrahydroisoquinolin-7-yl)amino)-1H-pyrazolo[3,4-d]pyrimidin-1-yl)cyclohexane-1-carboxamide] | > 7.00 |
| COc1cc2c(cc1Nc1ncc3c(C)nn([C@H]4CC[C@@H](O)CC4)c3n1)CN(C)CC2 [Example 45, (cis)-4-(6-((6-methoxy-2-methyl-1,2,3,4-tetrahydroisoquinolin-7-yl)amino)-3-methyl-1H-pyrazolo[3,4-d]pyrimidin-1-yl)cyclohexan-1-ol] | > 7.00 |

Next, values leading:

| pIC50 | Compound |
| --- | --- |
| > 7.00 | CCOC(=O)Cn1ncc2cnc(Nc3ccc4c(c3)CN(C)CC4)nc21 [Example 9, Ethyl 2-[6-[(2-methyl-3,4-dihydro-1H-isoquinolin-7-yl)amino]pyrazolo[3,4-d]pyrimidin-1-yl]acetate] |
| > 7.00 | CN1CCc2ccc(Nc3ncc4cnn(C5CC6(COC6)C5)c4n3)cc2C1 [Example 13, N-(1-(2-oxaspiro[3.3]heptan-6-yl)-1H-pyrazolo[3,4-d]pyrimidin-6-yl)-2-methyl-1,2,3,4-tetrahydroisoquinolin-7-amine] |
| > 7.00 | CN1CCc2ccc(Nc3ncc4cnn(C5CCCOC5)c4n3)cc2C1 (stereo not shown) [Example 15, 2-methyl-N-(1-(tetrahydro-2H-pyran-3-yl)-1H-pyrazolo[3,4-d]pyrimidin-6-yl)-1,2,3,4-tetrahydroisoquinolin-7-amine] |
| > 7.00 | CN1CCc2ccc(Nc3ncc4cnn(C5CCNCC5)c4n3)cc2C1 [Example 16, 2-methyl-N-(1-(piperidin-4-yl)-1H-pyrazolo[3,4-d]pyrimidin-6-yl)-1,2,3,4-tetrahydroisoquinolin-7-amine hydrochloride] |
| > 7.00 | CN1CCc2ccc(Nc3ncc4cnn([C@H]5CCCNC5)c4n3)cc2C1 [Example 17, (S)-2-methyl-N-(1-(piperidin-3-yl)-1H-pyrazolo[3,4-d]pyrimidin-6-yl)-1,2,3,4-tetrahydroisoquinolin-7-amine hydrochloride] |
| > 7.00 | C=CCCN1CCc2ccc(Nc3ncc4cnn(CCC=C)c4n3)cc2C1 [Example 18, 2-(but-3-en-1-yl)-N-(1-(but-3-en-1-yl)-1H-pyrazolo[3,4-d]pyrimidin-6-yl)-1,2,3,4-tetrahydroisoquinolin-7-amine] |
| > 7.00 | CN1CCc2ccc(Nc3ncc4cnn([C@H]5CCOC5)c4n3)cc2C1 [Example 19, (S)-2-methyl-N-(1-(tetrahydrofuran-3-yl)-1H-pyrazolo[3,4-d]pyrimidin-6-yl)-1,2,3,4-tetrahydroisoquinolin-7-amine] |
| > 7.00 | COc1cc2c(cc1Nc1ncc3cnn([C@H]4CC[C@@H](C(=O)O)CC4)c3n1)CN(C)CC2 [Example 26, (1s,4s)-4-(6-((6-methoxy-2-methyl-1,2,3,4-tetrahydroisoquinolin-7-yl)amino)-1H-pyrazolo[3,4-d]pyrimidin-1-yl)cyclohexane-1-carboxylic acid] |
| > 7.00 | COc1cc2c(cc1Nc1ncc3cnn([C@H]4CCC[C@H](C(N)=O)C4)c3n1)CN(C)CC2 [Example 31, (1S,3S)-3-(6-((6-methoxy-2-methyl-1,2,3,4-tetrahydroisoquinolin-7-yl)amino)-1H-pyrazolo[3,4-d]pyrimidin-1-yl)cyclohexane-1-carboxamide] |
| > 7.00 | CN1CCc2ccc(Nc3ncc4cnn([C@H]5CC[C@H](C(=O)O)CC5)c4n3)cc2C1 [Example 32, (1r,4r)-4-(6-((2-methyl-1,2,3,4-tetrahydroisoquinolin-7-yl)amino)-1H-pyrazolo[3,4-d]pyrimidin-1-yl)cyclohexane-1-carboxylic acid] |
| > 7.00 | COc1cc2c(cc1Nc1ncc3cnn(C4C=CCCC4)c3n1)CN(C)CC2 (stereo not shown) [Example 34, N-(1-(cyclohex-2-en-1-yl)-1H-pyrazolo[3,4-d]pyrimidin-6-yl)-6-methoxy-2-methyl-1,2,3,4-tetrahydroisoquinolin-7-amine] |
| > 7.00 | CO[C@H]1CC[C@@H](n2ncc3cnc(Nc4ccc5c(c4)CN(C)CC5)nc32)CC1 [Example 36, N-(1-((cis)-4-methoxycyclohexyl)-1H-pyrazolo[3,4-d]pyrimidin-6-yl)-2-methyl-1,2,3,4-tetrahydroisoquinolin-7-amine] |
| > 7.00 | COc1cc2c(cc1Nc1ncc3cnn([C@H]4CC[C@@H](O)CC4)c3n1)CN(C)CC2 [Example 39, (1s,4s)-4-(6-((6-methoxy-2-methyl-1,2,3,4-tetrahydroisoquinolin-7-yl)amino)-1H-pyrazolo[3,4-d]pyrimidin-1-yl)cyclohexan-1-ol] |
| > 7.00 | COc1cc2c(cc1Nc1ncc3cnn([C@H]4CC[C@@H](OC)CC4)c3n1)CN(C)CC2 [Example 46, 6-methoxy-N-(1-((1s,4s)-4-methoxycyclohexyl)-1H-pyrazolo[3,4-d]pyrimidin-6-yl)-2-methyl-1,2,3,4-tetrahydroisoquinolin-7-amine] |
